For this experiment, the system named is mice exposed to a lethal dose of 60Co radiation. In words: Radilex treatment of mice after lethal 60Co radiation exposure (survival, blood counts). It is filed as in vivo, mice (C57BL/6J). An excerpt: One purpose of the study is to determine the effects of Radilex™ ([Sar^9, Met(02)^11]-Substance P) after exposure to a lethal dose of ^60Co radiation exposure. Another purpose of the study is to determine if intra-muscular injections of Radilex™ can be as effective as aerosol inhalation of Radilex™ at 8Gy ^60Co radiation level.
Blood draws (2 animals per group rotating every 5 days) for erythrocytes, leukocytes and platelets were taken to assess anemia, neutropenia and thrombocytopenia. Counts of erythrocytes, leukocytes and platelets were taken to assess anemia, neutropenia and thrombocytopenia and act as indicators of bone marrow damage and/or immune system destruction.
The mice received Radilex™ treatment within 2 hours of radiation exposure. The Radilex™ dosage was administered in a volume of 0.01 ml in a daily single treatment via IM injection into the hind limb muscle a single time, for the duration of the study (30 days), or until death.
The following regimens were tested on groups of 9-11 mice:
10 mM Radilex™ single intramuscular treatment
1 mM Radilex™ single intramuscular treatment
1 mM Radilex™ daily intramuscular treatment
75 uM Radilex™ single intramuscular treatment
75 uM Radilex™ daily intramuscular treatment
10 uM Radilex™ daily via nebulizer
50 uM Radilex™ daily via nebulizer
75 uM Radilex™ daily via nebulizer
100 uM Radilex™ daily via nebulizer […]

“[Sar^9, Met(02)^11]-Substance P [Radilex™]”: under “mice, lethal 60Co radiation, Radilex intramuscular or via nebulizer, first treatment within 2 hours of exposure”, the “Radioprotection: effects of lethal exposure” value is on record as “Reversed”. For the same substance, the Neutropenia and anemia result (surviving animals after 60Co radiation, white cell count and hematocrit) is “Reversed”.

(Values after patent US20100062986A1, “METHOD TO TREAT BLOOD CELL DEPLETION” (ImmuneRegen Biosciences, Inc., priority 2006, published 2010).)
